The melting point is the temperature of the solid-liquid transition.

One data set relates to venous thrombosis. The data set is described as follows: venous thrombosis test in rats (venous stasis under hypercoagulation with factor Xa, Wessler technique), activity via the oral route. The format is in vivo, rat. To be noted: male Wistar rats, dose 6 mg/kg, thrombosis induced 2 h after administration. The procedure: The antithrombotic activity of the compounds according to the invention was studied in vivo in rats by virtue of a test in which a venous thrombosis is reproduced. The venous thrombosis was induced according to the protocol described in Thromb. Haemost., 1992, 67(1), 176-179. The activity via the oral route was studied according to the procedure described below. The experiment is carried out on non-fasting male Wistar rats weighing from 250 to 280 g and divided into groups of 10 animals each. The test products are administered orally (intubation) in solution or in suspension in a methylcellulose solution (0.5% in water). The concentrations of the compounds are calculated so as to bring about the absorption of an amount of solution of 10 ml/kg orally. A thrombosis is induced at time T after the administration of the product and the thrombus formed is removed and weighed. In order to induce this thrombosis, a venous stasis is brought about under hypercoagulation, according to the technique described by Wessler (J. Applied Physiol., 1959, 943-946), using a solution of activated factor X (Xa), supplied by Biogenic (Montpellier) and comprising a dose of 7.5 nKat/kg, as hypercoagulant. The venous stasis is brought about 10 seconds exactly after the injection of the hypercoagulant. The activity of the test compounds was monitored at various doses, after they had been administered. The thrombosis was induced 2 hours after the administration of the compound. By way of example, the results of the above tests are given in the following table for a few compounds according to the invention (the activity is expressed by the percentage of inhibition of the formation of the thrombus, observed in the presence of the compound according to the invention, with respect to the weight of the thrombus formed in the absence of the compound).

Regarding `O[C@@H]1[C@@H](O)[C@H](Oc2cc(F)ccc2-c2ccncc2)SC[C@H]1O` [Example 28, 5-Fluoro-2-(4-pyridinyl)phenyl 5-thio-β-D-xylopyranoside], the “Activity (percentage of inhibition of the formation of the thrombus)” value in the data set on venous thrombosis is on record as 71%. `O[C@@H]1[C@@H](O)[C@H](Oc2cccc(-c3ccccn3)c2)SC[C@H]1O` [Example 12, 3-(2-Pyridinyl)phenyl 5-thio-β-D-xylopyranoside] showed a melting point of 138 to 139 °C. Also, the “Activity (percentage of inhibition of the formation of the thrombus)” value with venous thrombosis is listed as 88%.

`O[C@@H]1[C@@H](O)[C@H](Oc2ccc(-c3cccnc3)cc2)SC[C@H]1O` [Example 6, 4-(3-Pyridinyl)phenyl 5-thio-β-D-xylopyranoside]: the melting point was 166 °C.

On to `O[C@@H]1[C@@H](O)[C@H](Oc2ccc(-c3ccccn3)cc2)SC[C@H]1O` [Example 10, 4-(2-Pyridinyl)phenyl 5-thio-β-D-xylopyranoside], for which the melting point came out at 197 °C. The “Activity (percentage of inhibition of the formation of the thrombus)” value with venous thrombosis was found to be 86%. `O[C@@H]1[C@@H](O)[C@H](Oc2ccc(-c3cccnc3)cc2F)SC[C@H]1O` [Example 24, 2-Fluoro-4-(3-pyridinyl)phenyl 5-thio-β-D-xylopyranoside] showed a melting point of 207 °C. With `Cc1ccc(-c2cccc(O[C@@H]3SC[C@@H](O)[C@H](O)[C@H]3O)c2)cn1` [Example 29, 3-(6-Methyl-3-pyridinyl)phenyl 5-thio-β-D-xylopyranoside], the melting point came to 177 °C. Same read-out and setting: the figure for `COc1ncccc1-c1cccc(O[C@@H]2SC[C@@H](O)[C@H](O)[C@H]2O)c1` [Example 33, 3-(2-Methoxy-3-pyridinyl)phenyl 5-thio-β-D-xylopyranoside] is 194 °C. Regarding `O[C@@H]1[C@@H](O)[C@H](Oc2ccccc2-c2ccncc2)SC[C@H]1O` [Example 16, 2-(4-Pyridinyl)phenyl 5-thio-β-D-xylopyranoside], the melting point is 134 °C. As to `O[C@@H]1[C@@H](O)[C@H](Oc2ccc(-c3ccncc3)cc2)SC[C@H]1O` [Example 8, 4-(4-Pyridinyl)phenyl-5-thio-β-D-xylopyranoside], the “Activity (percentage of inhibition of the formation of the thrombus)” value in the data set with venous thrombosis is 91%. Take `O[C@@H]1[C@@H](O)[C@H](Oc2ccccc2-c2cccnc2)SC[C@H]1O` [Example 18, 2-(3-Pyridinyl)phenyl 5-thio-β-D-xylopyranoside]: the melting point was 195 °C. For `O[C@@H]1[C@@H](O)[C@H](Oc2cccc(-c3cccnc3)c2)SC[C@H]1O` [Example 22, 3-(3-Pyridinyl)phenyl 5-thio-β-D-xylopyranoside], the melting point came out at 197 °C. The “Activity (percentage of inhibition of the formation of the thrombus)” value with venous thrombosis is 81%.

(Values after patent publication US8013010B2, “5-thioxylopyranose compounds” (Laboratoires Fournier S.A., priority 2006, dated 2011).)
